The values that follow come from patent publication US20090299044A1 (priority 2006, published 2009).

Assay [1] has as its target T1, human Kv1.1 (HEK293) (Homo sapiens, UniProt Q09470).
T1 construct: expressed in transfected cells; host or cells: HEK293
As to the kind of experiment: cell-based.

In assay [2] the target is T2, human Kv1.3 (CHO) (Homo sapiens, UniProt P22001).
T2 construct: expressed in transfected cells; host or cells: CHO
Description: cell-based.

By IC50 is commonly meant the midpoint of a concentration-inhibition curve. Lower therefore signals higher potency.

Bridge positions count the residues as written; N and C are the ends. Square brackets hold non-standard residues; d marks the D form. Peptide text beside a SMILES is read from it. 1Nal = N[C@@H](Cc1cccc2ccccc12)C(=O)O

T1 sequence (Q09470 whole entry): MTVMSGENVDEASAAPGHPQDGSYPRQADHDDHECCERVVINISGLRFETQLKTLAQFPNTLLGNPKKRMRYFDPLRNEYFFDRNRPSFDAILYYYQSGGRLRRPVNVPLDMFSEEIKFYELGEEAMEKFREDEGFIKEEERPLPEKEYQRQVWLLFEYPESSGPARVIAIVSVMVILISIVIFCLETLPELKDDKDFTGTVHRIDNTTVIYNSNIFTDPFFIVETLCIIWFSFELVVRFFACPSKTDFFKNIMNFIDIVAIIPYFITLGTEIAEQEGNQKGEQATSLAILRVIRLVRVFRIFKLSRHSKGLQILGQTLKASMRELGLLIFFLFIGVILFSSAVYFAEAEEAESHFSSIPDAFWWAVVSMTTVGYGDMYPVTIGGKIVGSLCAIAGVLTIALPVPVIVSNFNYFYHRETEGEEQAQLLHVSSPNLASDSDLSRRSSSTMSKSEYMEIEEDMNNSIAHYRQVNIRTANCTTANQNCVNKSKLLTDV
T2 sequence (P22001 whole entry): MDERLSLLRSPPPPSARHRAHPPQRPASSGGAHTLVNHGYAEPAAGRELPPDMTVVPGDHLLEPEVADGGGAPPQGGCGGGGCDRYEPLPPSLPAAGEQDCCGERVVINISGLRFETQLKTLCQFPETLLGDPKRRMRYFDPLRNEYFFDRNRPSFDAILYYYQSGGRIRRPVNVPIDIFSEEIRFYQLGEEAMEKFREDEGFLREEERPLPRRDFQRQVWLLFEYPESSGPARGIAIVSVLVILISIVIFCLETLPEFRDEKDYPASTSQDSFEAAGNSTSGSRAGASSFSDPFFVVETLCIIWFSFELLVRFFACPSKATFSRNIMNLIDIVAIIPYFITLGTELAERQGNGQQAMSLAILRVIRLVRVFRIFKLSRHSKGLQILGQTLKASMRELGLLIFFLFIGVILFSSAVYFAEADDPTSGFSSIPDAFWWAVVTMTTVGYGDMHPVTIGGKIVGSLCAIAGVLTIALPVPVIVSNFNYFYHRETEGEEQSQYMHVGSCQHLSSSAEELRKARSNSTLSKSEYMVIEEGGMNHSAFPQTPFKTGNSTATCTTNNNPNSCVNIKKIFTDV

In the case of `CC[C@H](C)[C@@H]1NC(=O)[C@H](CCCCN)NC(=O)[C@@H](NC(=O)[C@H](CCCCN)NC(=O)[C@@H](NC(=O)[C@H](CC(N)=O)NC(=O)[C@@H](NC(=O)[C@@H](NC(=O)[C@@H](NC(=O)CN)C(C)C)[C@@H](C)CC)[C@@H](C)CC)C(C)C)CSSC[C@@H]2NC(=O)[C@H](CCCCN)NC(=O)CNC(=O)[C@H](CCC(=O)O)NC(=O)[C@H](CCCNC(=N)N)NC(=O)[C@H](CCSC)NC(=O)CNC(=O)[C@H](C)NC(=O)[C@H](CCCCN)NC(=O)[C@H](CCCCN)NC(=O)[C@@H]3CSSC[C@@H](C(=O)N[C@H](C(=O)N4CCC[C@H]4C(=O)N[C@@H](CCCCN)C(=O)O)[C@@H](C)O)NC(=O)[C@H](Cc4c[nH]cn4)NC(=O)[C@H](CSSC[C@H](NC(=O)[C@H](CCC(N)=O)NC(=O)[C@H](CCCNC(=N)N)NC(=O)[C@H](CO)NC1=O)C(=O)N[C@@H](CC(C)C)C(=O)N[C@@H](CCC(=O)O)C(=O)N1CCC[C@H]1C(=O)N3)NC(=O)[C@H](CCCCN)NC(=O)CNC(=O)[C@H](CC(N)=O)NC(=O)[C@H](CCSC)NC2=O` [F25E] (H-GVIINVKCKISRQCLEPCKKAGMREGKCMNGKCHCTPK-OH; disulfide 8-28, 14-33, 18-35), the IC50 in assay [1] and in assay [2] was above 3.33 nM each time.
`CC[C@H](C)[C@@H]1NC(=O)[C@H](CCCCN)NC(=O)[C@@H](NC(=O)[C@H](CCCCN)NC(=O)[C@@H](NC(=O)[C@H](CC(N)=O)NC(=O)[C@@H](NC(=O)[C@@H](NC(=O)[C@@H](NC(=O)CN)C(C)C)[C@@H](C)CC)[C@@H](C)CC)C(C)C)CSSC[C@@H]2NC(=O)[C@H](CCCCN)NC(=O)CNC(=O)[C@H](Cc3cccc4ccccc34)NC(=O)[C@H](CCCNC(=N)N)NC(=O)[C@H](CCSC)NC(=O)CNC(=O)[C@H](C)NC(=O)[C@H](CCCCN)NC(=O)[C@H](CCCCN)NC(=O)[C@@H]3CSSC[C@@H](C(=O)N[C@H](C(=O)N4CCC[C@H]4C(=O)N[C@@H](CCCCN)C(=O)O)[C@@H](C)O)NC(=O)[C@H](Cc4c[nH]cn4)NC(=O)[C@H](CSSC[C@H](NC(=O)[C@H](CCC(N)=O)NC(=O)[C@H](CCCNC(=N)N)NC(=O)[C@H](CO)NC1=O)C(=O)N[C@@H](CC(C)C)C(=O)N[C@@H](CCC(=O)O)C(=O)N1CCC[C@H]1C(=O)N3)NC(=O)[C@H](CCCCN)NC(=O)CNC(=O)[C@H](CC(N)=O)NC(=O)[C@H](CCSC)NC2=O` [F25Nal] (H-GVIINVKCKISRQCLEPCKKAGMR[1Nal]GKCMNGKCHCTPK-OH; disulfide 8-28, 14-33, 18-35): the half-maximal inhibitory concentration (IC50) was 0.0517 nM in assay [1] and 0.0286 nM in assay [2].
As for `CC[C@H](C)[C@@H]1NC(=O)[C@H](CCCCN)NC(=O)[C@@H](NC(=O)[C@H](CCCCN)NC(=O)[C@@H](NC(=O)[C@H](CC(N)=O)NC(=O)[C@@H](NC(=O)[C@@H](NC(=O)[C@@H](NC(=O)CN)C(C)C)[C@@H](C)CC)[C@@H](C)CC)C(C)C)CSSC[C@@H]2NC(=O)[C@H](CCCCN)NC(=O)CNC(=O)[C@H](CCCNC(=N)N)NC(=O)[C@H](CCCNC(=N)N)NC(=O)[C@H](CCSC)NC(=O)CNC(=O)[C@H](C)NC(=O)[C@H](CCCCN)NC(=O)[C@H](CCCCN)NC(=O)[C@@H]3CSSC[C@@H](C(=O)N[C@H](C(=O)N4CCC[C@H]4C(=O)N[C@@H](CCCCN)C(=O)O)[C@@H](C)O)NC(=O)[C@H](Cc4c[nH]cn4)NC(=O)[C@H](CSSC[C@H](NC(=O)[C@H](CCC(N)=O)NC(=O)[C@H](CCCNC(=N)N)NC(=O)[C@H](CO)NC1=O)C(=O)N[C@@H](CC(C)C)C(=O)N[C@@H](CCC(=O)O)C(=O)N1CCC[C@H]1C(=O)N3)NC(=O)[C@H](CCCCN)NC(=O)CNC(=O)[C@H](CC(N)=O)NC(=O)[C@H](CCSC)NC2=O` [F25R] (H-GVIINVKCKISRQCLEPCKKAGMRRGKCMNGKCHCTPK-OH; disulfide 8-28, 14-33, 18-35), the values for the IC50 in assay [1] and in assay [2] were 0.817 nM and above 3.33 nM, respectively.
`CC[C@H](C)[C@@H]1NC(=O)[C@H](CCCCN)NC(=O)[C@@H](NC(=O)[C@H](CCCCN)NC(=O)[C@@H](NC(=O)[C@H](CC(N)=O)NC(=O)[C@@H](NC(=O)[C@@H](NC(=O)[C@@H](NC(=O)[C@H](C)N)C(C)C)[C@@H](C)CC)[C@@H](C)CC)C(C)C)CSSC[C@@H]2NC(=O)[C@H](CCCCN)NC(=O)CNC(=O)[C@H](Cc3ccccc3)NC(=O)[C@H](CCCNC(=N)N)NC(=O)[C@H](CCSC)NC(=O)CNC(=O)[C@H](C)NC(=O)[C@H](CCCCN)NC(=O)[C@H](CCCCN)NC(=O)[C@@H]3CSSC[C@@H](C(=O)N[C@H](C(=O)N4CCC[C@H]4C(=O)N[C@@H](CCCCN)C(=O)O)[C@@H](C)O)NC(=O)[C@H](Cc4c[nH]cn4)NC(=O)[C@H](CSSC[C@H](NC(=O)[C@H](CCC(N)=O)NC(=O)[C@H](CCCNC(=N)N)NC(=O)[C@H](CO)NC1=O)C(=O)N[C@@H](CC(C)C)C(=O)N[C@@H](CCC(=O)O)C(=O)N1CCC[C@H]1C(=O)N3)NC(=O)[C@H](CCCCN)NC(=O)CNC(=O)[C@H](CC(N)=O)NC(=O)[C@H](CCSC)NC2=O` [G1A] (H-AVIINVKCKISRQCLEPCKKAGMRFGKCMNGKCHCTPK-OH; disulfide 8-28, 14-33, 18-35): the results for the IC50 in assay [1] and in assay [2] were 0.0139 nM and 0.0411 nM, respectively.
For `CC[C@H](C)[C@@H]1NC(=O)[C@H](CCCCN)NC(=O)[C@@H](NC(=O)[C@H](CCCCN)NC(=O)[C@@H](NC(=O)[C@H](CC(N)=O)NC(=O)[C@@H](NC(=O)[C@@H](NC(=O)[C@@H](NC(=O)[C@@H](N)CCC(=O)O)C(C)C)[C@@H](C)CC)[C@@H](C)CC)C(C)C)CSSC[C@@H]2NC(=O)[C@H](CCCCN)NC(=O)CNC(=O)[C@H](Cc3ccccc3)NC(=O)[C@H](CCCNC(=N)N)NC(=O)[C@H](CCSC)NC(=O)CNC(=O)[C@H](C)NC(=O)[C@H](CCCCN)NC(=O)[C@H](CCCCN)NC(=O)[C@@H]3CSSC[C@@H](C(=O)N[C@H](C(=O)N4CCC[C@H]4C(=O)N[C@@H](CCCCN)C(=O)O)[C@@H](C)O)NC(=O)[C@H](Cc4c[nH]cn4)NC(=O)[C@H](CSSC[C@H](NC(=O)[C@H](CCC(N)=O)NC(=O)[C@H](CCCNC(=N)N)NC(=O)[C@H](CO)NC1=O)C(=O)N[C@@H](CC(C)C)C(=O)N[C@@H](CCC(=O)O)C(=O)N1CCC[C@H]1C(=O)N3)NC(=O)[C@H](CCCCN)NC(=O)CNC(=O)[C@H](CC(N)=O)NC(=O)[C@H](CCSC)NC2=O` [G1E] (H-EVIINVKCKISRQCLEPCKKAGMRFGKCMNGKCHCTPK-OH; disulfide 8-28, 14-33, 18-35), in that order: 0.051 nM and 0.186 nM.
For `CC[C@H](C)[C@@H]1NC(=O)[C@H](CCCCN)NC(=O)[C@@H](NC(=O)[C@H](CCCCN)NC(=O)[C@@H](NC(=O)[C@H](CC(N)=O)NC(=O)[C@@H](NC(=O)[C@@H](NC(=O)[C@@H](NC(=O)[C@@H](N)CCCNC(=N)N)C(C)C)[C@@H](C)CC)[C@@H](C)CC)C(C)C)CSSC[C@@H]2NC(=O)[C@H](CCCCN)NC(=O)CNC(=O)[C@H](Cc3ccccc3)NC(=O)[C@H](CCCNC(=N)N)NC(=O)[C@H](CCSC)NC(=O)CNC(=O)[C@H](C)NC(=O)[C@H](CCCCN)NC(=O)[C@H](CCCCN)NC(=O)[C@@H]3CSSC[C@@H](C(=O)N[C@H](C(=O)N4CCC[C@H]4C(=O)N[C@@H](CCCCN)C(=O)O)[C@@H](C)O)NC(=O)[C@H](Cc4c[nH]cn4)NC(=O)[C@H](CSSC[C@H](NC(=O)[C@H](CCC(N)=O)NC(=O)[C@H](CCCNC(=N)N)NC(=O)[C@H](CO)NC1=O)C(=O)N[C@@H](CC(C)C)C(=O)N[C@@H](CCC(=O)O)C(=O)N1CCC[C@H]1C(=O)N3)NC(=O)[C@H](CCCCN)NC(=O)CNC(=O)[C@H](CC(N)=O)NC(=O)[C@H](CCSC)NC2=O` [G1R] (H-RVIINVKCKISRQCLEPCKKAGMRFGKCMNGKCHCTPK-OH; disulfide 8-28, 14-33, 18-35), in that order: 0.00991 nM and 0.0688 nM.
In the case of `CC[C@H](C)[C@@H]1NC(=O)[C@H](CCCCN)NC(=O)[C@@H](NC(=O)[C@H](CCCCN)NC(=O)[C@@H](NC(=O)[C@H](CC(N)=O)NC(=O)[C@@H](NC(=O)[C@@H](NC(=O)[C@@H](NC(=O)CN)C(C)C)[C@@H](C)CC)[C@@H](C)CC)C(C)C)CSSC[C@@H]2NC(=O)[C@H](CCCCN)NC(=O)CNC(=O)[C@H](Cc3ccccc3)NC(=O)[C@H](CCCNC(=N)N)NC(=O)[C@H](CCSC)NC(=O)[C@H](C)NC(=O)[C@H](C)NC(=O)[C@H](CCCCN)NC(=O)[C@H](CCCCN)NC(=O)[C@@H]3CSSC[C@@H](C(=O)N[C@H](C(=O)N4CCC[C@H]4C(=O)N[C@@H](CCCCN)C(=O)O)[C@@H](C)O)NC(=O)[C@H](Cc4c[nH]cn4)NC(=O)[C@H](CSSC[C@H](NC(=O)[C@H](CCC(N)=O)NC(=O)[C@H](CCCNC(=N)N)NC(=O)[C@H](CO)NC1=O)C(=O)N[C@@H](CC(C)C)C(=O)N[C@@H](CCC(=O)O)C(=O)N1CCC[C@H]1C(=O)N3)NC(=O)[C@H](CCCCN)NC(=O)CNC(=O)[C@H](CC(N)=O)NC(=O)[C@H](CCSC)NC2=O` [G22A] (H-GVIINVKCKISRQCLEPCKKAAMRFGKCMNGKCHCTPK-OH; disulfide 8-28, 14-33, 18-35), the IC50 in assay [1] and in assay [2] was above 3 nM each time.
In the case of `CC[C@H](C)[C@@H]1NC(=O)[C@H](CCCCN)NC(=O)[C@@H](NC(=O)[C@H](CCCCN)NC(=O)[C@@H](NC(=O)[C@H](CC(N)=O)NC(=O)[C@@H](NC(=O)[C@@H](NC(=O)[C@@H](NC(=O)CN)C(C)C)[C@@H](C)CC)[C@@H](C)CC)C(C)C)CSSC[C@@H]2NC(=O)[C@H](CCCCN)NC(=O)CNC(=O)[C@H](Cc3ccccc3)NC(=O)[C@H](CCCNC(=N)N)NC(=O)[C@H](CCSC)NC(=O)[C@H](CCC(=O)O)NC(=O)[C@H](C)NC(=O)[C@H](CCCCN)NC(=O)[C@H](CCCCN)NC(=O)[C@@H]3CSSC[C@@H](C(=O)N[C@H](C(=O)N4CCC[C@H]4C(=O)N[C@@H](CCCCN)C(=O)O)[C@@H](C)O)NC(=O)[C@H](Cc4c[nH]cn4)NC(=O)[C@H](CSSC[C@H](NC(=O)[C@H](CCC(N)=O)NC(=O)[C@H](CCCNC(=N)N)NC(=O)[C@H](CO)NC1=O)C(=O)N[C@@H](CC(C)C)C(=O)N[C@@H](CCC(=O)O)C(=O)N1CCC[C@H]1C(=O)N3)NC(=O)[C@H](CCCCN)NC(=O)CNC(=O)[C@H](CC(N)=O)NC(=O)[C@H](CCSC)NC2=O` [G22E] (H-GVIINVKCKISRQCLEPCKKAEMRFGKCMNGKCHCTPK-OH; disulfide 8-28, 14-33, 18-35), the half-maximal inhibitory concentration (IC50) was found to be 0.00256 nM in assay [1] and 0.0139 nM in assay [2].
